Reference: patent publication US9445594B2, “Molecules having certain pesticidal utilities, intermediates, compositions, and processes, related thereto” (priority 2014, dated 2016)
Like-named read-outs stand apart in the source and are kept apart here.

Key:
Type in all cases: in vivo
[1] = test system: Cabbage Looper (Trichoplusia ni, TRIPNI) ("CL"); test: Bioassays on CL, 128-well diet tray assay; settings: 168 h, read-out: CL % Control (or Mortality) rating
Protocol: (§1) Certain molecules disclosed in this document were tested against BAW, CEW, and CL using procedures described in the following examples. In the reporting of the results, the “BAW, CEW, & CL Rating Table” was used (See Table Section).
Bioassays on CL were conducted using a 128-well diet tray assay. one to five second instar CL larvae were placed in each well (3 mL) of the diet tray that had been previously filled with 1 mL of artificial diet to which 50 μg/cm^2 of the test compound (dissolved in 50 μL of 90:10 acetone-water mixture) had been applied (to each of eight wells) and then allowed to dry. Trays were covered with a clear self-adhesive cover and held at 25° C., 14:10 light-dark for five to seven days. Percent mortality was recorded for the larvae in each well; activity in the eight wells was then averaged. The results are indicated in the table entitled “Table ABC: Biological Results” (See Table Section).

[2] = test system: Beet Armyworm (Spodoptera exigua, LAPHEG) ("BAW"); test: Bioassays on BAW, 128-well diet tray assay; settings: 168 h, read-out: BAW % Control (or Mortality) rating
Protocol: as §1
Bioassays on BAW were conducted using a 128-well diet tray assay. one to five second instar BAW larvae were placed in each well (3 mL) of the diet tray that had been previously filled with 1 mL of artificial diet to which 50 μg/cm^2 of the test compound (dissolved in 50 μL of 90:10 acetone-water mixture) had been applied (to each of eight wells) and then allowed to dry. Trays were covered with a clear self-adhesive cover and held at 25° C., 14:10 light-dark for five to seven days. Percent mortality was recorded for the larvae in each well; activity in the eight wells was then averaged. The results are indicated in the table entitled “Table ABC: Biological Results” (See Table Section).

[3] = test system: Yellow Fever Mosquito (Aedes aegypti, AEDSAE) ("YFM"); test: Bioassays on YFM, 96-well plate larval assay; settings: about 1 day-old larvae, from 4000 ppm DMSO master plate diluted, room temperature, scored after 3 days
Protocol: Certain molecules disclosed in this document were tested against YFM using procedures described in the following paragraph. In the reporting of the results, the “YFM Rating Table” was used (See Table Section).
Master plates containing 400 μg of a molecule dissolved in 100 μL of dimethyl sulfoxide (DMSO) (equivalent to a 4000 ppm solution) are used. A master plate of assembled molecules contains 15 μL per well. To this plate, 135 μL of a 90:10 water:acetone mixture is added to each well. A robot (Biomek® NXP Laboratory Automation Workstation) is programmed to dispense 15 μL aspirations from the master plate into an empty 96-well shallow plate (“daughter” plate). There are 6 reps (“daughter” plates) created per master. The created daughter plates are then immediately infested with YFM larvae.
The day before plates are to be treated, mosquito eggs are placed in Millipore water containing liver powder to begin hatching (4 g. into 400 mL). After the daughter plates are created using the robot, they are infested with 220 μL of the liver powder/larval mosquito mixture (about 1 day-old larvae). After plates are infested with mosquito larvae, a non-evaporative lid is used to cover the plate to reduce drying. Plates are held at room temperature for 3 days prior to grading. After 3 days, each well is observed and scored based on mortality.

[4] = second instar larvae, 50 μg/cm^2 on artificial diet, 25° C., five to seven days, average of eight wells

For `CSc1ccccc1-c1ccccc1NC(=S)Nc1ccc(-c2ncn(-c3ccc(OC(F)(F)F)cc3)n2)cc1` [F42, 1-(2′-(Methylthio)-[1,1′-biphenyl]-2-yl)-3-(4-(1-(4-(trifluoromethoxy)phenyl)-1H-1,2,4-triazol-3-yl)phenyl)thiourea], which mortality at 50 µg/cm2 [1, 4] is on record?
Its mortality at 50 µg/cm2 is 50 to 100%.

And the mortality at 50 µg/cm2 [2, 4]?
Its mortality at 50 µg/cm2 is 50 to 100%.

What about the “YFM % Control (or Mortality) rating” value [3] of the same compound?
Its value is “B (More than 0 - Less than 80)”.

Which mortality at 50 µg/cm2 [1, 4] does the source give for `FC(F)(F)Oc1ccc(-n2cnc(-c3ccc(NC(=S)Nc4ccccc4-c4nnco4)cc3)n2)cc1` [F44, 1-(2-(1,3,4-Oxadiazol-2-yl)phenyl)-3-(4-(1-(4-(trifluoromethoxy)phenyl)-1H-1,2,4-triazol-3-yl)phenyl)thiourea] here?
The mortality at 50 µg/cm2 was 0%.

What about the mortality at 50 µg/cm2 [2, 4] of the same compound?
The mortality at 50 µg/cm2 was 0%.

And the “YFM % Control (or Mortality) rating” value [3]?
The value was “D (No activity noticed in this bioassay)”.

Which results are given for `CC(C)c1ccccc1NC(=S)NCc1ccc(-c2ncn(-c3ccc(OC(F)(F)F)cc3)n2)cc1` [F45, 1-(2-isopropylphenyl)-3-(4-(1-(4-(trifluoromethoxy)phenyl)-1H-1,2,4-triazol-3-yl)benzyl)thiourea]?
mortality at 50 µg/cm2 [1, 4]: 50 to 100%; mortality at 50 µg/cm2 [2, 4]: 0 to 50%; YFM % Control (or Mortality) rating [3]: A (80-100)

Which results are given for `FC(F)(F)Oc1ccc(-n2cnc(-c3ccc(NC(=S)Nc4ccccc4-c4ccccc4)cc3)n2)cc1` [F47, 1-([1,1′-Biphenyl]-2-yl)-3-(4-(1-(4-(trifluoromethoxy)phenyl)-1H-1,2,4-triazol-3-yl)phenyl)thiourea]?
mortality at 50 µg/cm2 [1, 4]: 50 to 100%; mortality at 50 µg/cm2 [2, 4]: 0%; YFM % Control (or Mortality) rating [3]: D (No activity noticed in this bioassay)

Which results are given for `O=C(Nc1ccc(-c2ncn(-c3ccc(OC(F)(F)F)cc3)n2)cc1)Nc1ccccc1C1CC1C1CC1` (stereo not drawn) [F49, 1-(2-([1,1′-Bi(cyclopropan)]-2-yl)phenyl)-3-(4-(1-(4-(trifluoromethoxy)phenyl)-1H-1,2,4-triazol-3-yl)phenyl)urea]?
mortality at 50 µg/cm2 [1, 4]: 50 to 100%; mortality at 50 µg/cm2 [2, 4]: 0 to 50%; YFM % Control (or Mortality) rating [3]: D (No activity noticed in this bioassay)

Which results are given for `FC(F)(F)Oc1ccc(-n2cnc(-c3ccc(NC(=S)Nc4ncccc4-c4ccccc4)cc3)n2)cc1` [F50, 1-(3-Phenylpyridin-2-yl)-3-(4-(1-(4-(trifluoromethoxy)phenyl)-1H-1,2,4-triazol-3-yl)phenyl)thiourea]?
mortality at 50 µg/cm2 [1, 4]: 0%; mortality at 50 µg/cm2 [2, 4]: 0%; YFM % Control (or Mortality) rating [3]: D (No activity noticed in this bioassay)

For `O=C(Nc1ccc(-c2ncn(-c3ccc(OC(F)(F)F)cc3)n2)cc1)Nc1ccccc1Cc1ccccc1` [F51, 1-(2-Benzylphenyl)-3-(4-(1-(4-(trifluoromethoxy)phenyl)-1H-1,2,4-triazol-3-yl)phenyl)urea], which mortality at 50 µg/cm2 [1, 4] is on record?
The mortality at 50 µg/cm2 was 0 to 50%.

And the mortality at 50 µg/cm2 [2, 4]?
Its mortality at 50 µg/cm2 is 0 to 50%.

And the “YFM % Control (or Mortality) rating” value [3]?
Its value is “D (No activity noticed in this bioassay)”.

What does the source list for `CC(C)c1ccccc1NC(=O)Nc1ccc(-c2ncn(-c3ccc(OC(F)(F)C(F)(F)F)cc3)n2)cc1` [F54, 1-(2-Isopropylphenyl)-3-(4-(1-(4-(perfluoroethoxy)phenyl)-1H-1,2,4-triazol-3-yl)phenyl)urea]?
mortality at 50 µg/cm2 [1, 4]: 50 to 100%; mortality at 50 µg/cm2 [2, 4]: 50 to 100%; YFM % Control (or Mortality) rating [3]: D (No activity noticed in this bioassay)

Which results are given for `FC(F)(F)Oc1ccc(-n2cnc(-c3ccc(NC(=S)Nc4ncccc4-c4cccnc4)cc3)n2)cc1` [F56, 1-([3,3′-Bipyridin]-2-yl)-3-(4-(1-(4-(trifluoromethoxy)phenyl)-1H-1,2,4-triazol-3-yl)phenyl)thiourea]?
mortality at 50 µg/cm2 [1, 4]: 50 to 100%; mortality at 50 µg/cm2 [2, 4]: 0 to 50%; YFM % Control (or Mortality) rating [3]: D (No activity noticed in this bioassay)

What does the source list for `CSc1ccccc1-c1cccnc1NC(=O)Nc1ccc(-c2ncn(-c3ccc(OC(F)(F)F)cc3)n2)cc1` [F59, 1-(3-(2-(Methylthio)phenyl)pyridin-2-yl)-3-(4-(1-(4-(trifluoromethoxy)phenyl)-1H-1,2,4-triazol-3-yl)phenyl)urea]?
mortality at 50 µg/cm2 [1, 4]: 50 to 100%; mortality at 50 µg/cm2 [2, 4]: 50 to 100%; YFM % Control (or Mortality) rating [3]: D (No activity noticed in this bioassay)

For `C=C(C)c1ccccc1NC(=O)Nc1ccc(-c2ncn(-c3ccc(OC(F)(F)F)cc3)n2)cc1` [F61, 1-(2-(Prop-1-en-2-yl)phenyl)-3-(4-(1-(4-(trifluoromethoxy)phenyl)-1H-1,2,4-triazol-3-yl)phenyl)urea], which mortality at 50 µg/cm2 [1, 4] is on record?
Its mortality at 50 µg/cm2 is 50 to 100%.

And the mortality at 50 µg/cm2 [2, 4]?
The mortality at 50 µg/cm2 was 50 to 100%.

And the “YFM % Control (or Mortality) rating” value [3]?
Its value is “D (No activity noticed in this bioassay)”.

`O=C(Nc1ccc(-c2ncn(-c3ccc(OC(F)(F)F)cc3)n2)cc1)Nc1ccccc1-c1cccnc1` [F62, 1-(2-(Pyridin-3-yl)phenyl)-3-(4-(1-(4-(trifluoromethoxy)phenyl)-1H-1,2,4-triazol-3-yl)phenyl)urea] was tested. Which mortality at 50 µg/cm2 [1, 4] did it give?
Its mortality at 50 µg/cm2 is 50 to 100%.

And the mortality at 50 µg/cm2 [2, 4]?
The mortality at 50 µg/cm2 was 50 to 100%.

And the “YFM % Control (or Mortality) rating” value [3]?
The value was “B (More than 0 - Less than 80)”.

For `O=C(Nc1ccc(-c2ncn(-c3ccc(OC(F)(F)F)cc3)n2)cc1)Nc1ccccc1C(F)(F)F` [F64, 1-(4-(1-(4-(trifluoromethoxy)phenyl)-1H-1,2,4-triazol-3-yl)phenyl)-3-(2-(trifluoromethyl)phenyl)urea], which mortality at 50 µg/cm2 [1, 4] is on record?
The mortality at 50 µg/cm2 was 50 to 100%.

And the mortality at 50 µg/cm2 [2, 4]?
Its mortality at 50 µg/cm2 is 50 to 100%.

What about the “YFM % Control (or Mortality) rating” value [3] of the same compound?
The value was “B (More than 0 - Less than 80)”.

What does the source list for `CC(C)c1ccccc1NC(=S)NCCCc1ccc(-c2ncn(-c3ccc(OC(F)(F)F)cc3)n2)cc1` [F76, 1-(2-isopropylphenyl)-3-(3-(4-(1-(4-(trifluoromethoxy)phenyl)-1H-1,2,4-triazol-3-yl)phenyl)propyl)thiourea]?
mortality at 50 µg/cm2 [1]: 50 to 100%; mortality at 50 µg/cm2 [2]: 50 to 100%; YFM % Control (or Mortality) rating [3]: A (80-100)

For `Cc1ccccc1NC(=O)NCCCc1ccc(-c2ncn(-c3ccc(OC(F)(F)F)cc3)n2)cc1` [F77, 1-(o-tolyl)-3-(3-(4-(1-(4-(trifluoromethoxy)phenyl)-1H-1,2,4-triazol-3-yl)phenyl)propyl)urea], which mortality at 50 µg/cm2 [1, 4] is on record?
Its mortality at 50 µg/cm2 is 50 to 100%.

What about the mortality at 50 µg/cm2 [2, 4] of the same compound?
Its mortality at 50 µg/cm2 is 50 to 100%.

And the “YFM % Control (or Mortality) rating” value [3]?
The value was “A (80-100)”.

Which results are given for `CC(C)c1ccccc1NC(=O)NCCCc1ccc(-c2ncn(-c3ccc(OC(F)(F)F)cc3)n2)cc1` [F78, 1-(2-Isopropylphenyl)-3-(3-(4-(1-(4-(trifluoromethoxy)phenyl)-1H-1,2,4-triazol-3-yl)phenyl)propyl)urea]?
mortality at 50 µg/cm2 [1, 4]: 50 to 100%; mortality at 50 µg/cm2 [2, 4]: 50 to 100%; YFM % Control (or Mortality) rating [3]: A (80-100)

With `COc1cccc(NC(=O)NCCCc2ccc(-c3ncn(-c4ccc(OC(F)(F)F)cc4)n3)cc2)c1` [F80, 1-(3-Methoxyphenyl)-3-(3-(4-(1-(4-(trifluoromethoxy)phenyl)-1H-1,2,4-triazol-3-yl)phenyl)propyl)urea] as the compound, how does the mortality at 50 µg/cm2 [1, 4] read?
The mortality at 50 µg/cm2 was 50 to 100%.

What about the mortality at 50 µg/cm2 [2, 4] of the same compound?
Its mortality at 50 µg/cm2 is 50 to 100%.

And the “YFM % Control (or Mortality) rating” value [3]?
Its value is “A (80-100)”.

For `COc1ccccc1NC(=O)NCCCc1ccc(-c2ncn(-c3ccc(OC(F)(F)F)cc3)n2)cc1` [F81, 1-(2-Methoxyphenyl)-3-(3-(4-(1-(4-(trifluoromethoxy)phenyl)-1H-1,2,4-triazol-3-yl)phenyl)propyl)urea], which mortality at 50 µg/cm2 [1, 4] is on record?
The mortality at 50 µg/cm2 was 50 to 100%.

And the mortality at 50 µg/cm2 [2, 4]?
Its mortality at 50 µg/cm2 is 50 to 100%.

And the “YFM % Control (or Mortality) rating” value [3]?
The value was “B (More than 0 - Less than 80)”.

What does the source list for `O=C(NCCCc1ccc(-c2ncn(-c3ccc(OC(F)(F)F)cc3)n2)cc1)Nc1ccccc1Cl` [F84, 1-(2-Chlorophenyl)-3-(3-(4-(1-(4-(trifluoromethoxy)phenyl)-1H-1,2,4-triazol-3-yl)phenyl)propyl)urea]?
mortality at 50 µg/cm2 [1, 4]: 50 to 100%; mortality at 50 µg/cm2 [2, 4]: 50 to 100%; YFM % Control (or Mortality) rating [3]: B (More than 0 - Less than 80)

Which mortality at 50 µg/cm2 [1, 4] does the source give for `O=C(NCCCc1ccc(-c2ncn(-c3ccc(OC(F)(F)F)cc3)n2)cc1)Nc1cccc(Cl)c1` [F85, 1-(3-Chlorophenyl)-3-(3-(4-(1-(4-(trifluoromethoxy)phenyl)-1H-1,2,4-triazol-3-yl)phenyl)propyl)urea] here?
Its mortality at 50 µg/cm2 is 50 to 100%.

What about the mortality at 50 µg/cm2 [2, 4] of the same compound?
Its mortality at 50 µg/cm2 is 50 to 100%.

What about the “YFM % Control (or Mortality) rating” value [3] of the same compound?
Its value is “A (80-100)”.
